This is an account of results in paper PMC8187479, “Sugar phosphate activation of the stress sensor eIF2B” (Nature Communications, 2021).

One assay addresses T1, eIF2Bα (Homo sapiens, UniProt Q14232).
T1 construct: made in house; host or cells: E. coli BL21(DE3)
T1 sequence (Q14232 1-305): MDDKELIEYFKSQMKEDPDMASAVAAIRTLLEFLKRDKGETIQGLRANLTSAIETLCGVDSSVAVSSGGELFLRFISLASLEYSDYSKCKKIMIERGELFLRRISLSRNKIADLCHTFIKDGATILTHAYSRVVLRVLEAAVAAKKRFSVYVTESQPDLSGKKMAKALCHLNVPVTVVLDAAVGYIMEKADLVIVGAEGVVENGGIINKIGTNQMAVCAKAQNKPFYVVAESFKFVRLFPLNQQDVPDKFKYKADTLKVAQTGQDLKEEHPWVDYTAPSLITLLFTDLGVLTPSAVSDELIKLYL
The assay is described as follows: MIDAS (mass spectrometry integrated with equilibrium dialysis) metabolite binding screen. The following applies: MIDAS metabolite binding screen with eIF2Bα; sheet "eIF2Ba". The procedure: Metabolites were combined into four defined screening pools. […] To the reverse side, 300 μL of 50 μM per metabolite pool was aliquoted and sealed (metabolite chamber). Loaded dialysis plates were placed in the dark at 4 °C on a rotating shaker (120 rpm) and incubated for 40 h. Post-dialysis, metabolites were isolated from each chamber by cold methanol extraction. Each sample was analyzed in technical triplicate by FIA-MS on a SCIEX X500R QTOF MS with interspersed blanks injections. The input metabolite pools were assayed at the beginning, middle, and end of each MS method batch for QC and normalization.
MIDAS FIA-MS spectra were processed in SCIEX OS 1.6 software to determine metabolite abundances by integrating the mean area under the curve for each extracted ion chromatogram. For each dialysis replicate, log2(fold change) for each metabolite was calculated as the difference between the log2 abundance in the protein chamber and metabolite chamber. For each technical triplicate, up to one outlier was removed using a z-score cutoff of five (<0.1% of observations). The corrected technical replicates were collapsed to one mean fold-change summary per protein-metabolite pair. To remove fold-change variation that was not specific to a given metabolite-protein pair, the first three principal components of the total screening dataset were removed on a per metabolite pool basis by subtracting the projection of the first 3 principal components, creating log2(corrected fold change). Protein-metabolite z-scores were determined by comparing the target protein-metabolite log2(corrected fold change) to a no-signal model for that metabolite using measures of the central tendency (median) and standard deviation (extrapolated from the 25–75% quantiles), which are robust to the signals in the tails of a metabolite’s fold-change distribution. Z-scores were false-discovery rate controlled using Storey’s q-value (qvalue, R) and protein-metabolite interactions with q-values < 0.1 were considered significant.
(In equilibrium dialysis free small molecules cross a membrane that holds back macromolecules.)
On to `CC(=O)N[C@H]1[C@@H](OP(=O)(O)OP(=O)(O)OC[C@H]2O[C@@H](n3ccc(=O)[nH]c3=O)[C@H](O)[C@@H]2O)O[C@H](CO)[C@@H](O)[C@@H]1O` [UDP-GlcNAc], for which the “log2(corrected fold change)” value was -0.0409. Still for that read-out and setting: with `O=C[C@H](O)[C@@H](O)[C@@H](O)CO` [L-Arabinose_1] the figure was 0.02262.

With `C[C@@H]1O[C@H](OP(=O)(O)O)[C@@H](O)[C@H](O)[C@@H]1O` [L-Fucose 1-phosphate], the “log2(corrected fold change)” value is given as -0.0359. Still for that read-out and setting: as for `CC(C)C[C@H](N)C(=O)O` [L-Leucine], the figure is -0.00688; as for `OC[C@H]1O[C@H](OCC2O[C@@H](O)[C@H](O)[C@@H](O)[C@@H]2O)[C@H](O)[C@@H](O)[C@H]1O` (stereo partly shown) [Melibiose], -0.003615; as for `Cc1ncc(CO)c(CN)c1O` [Pyridoxamine], 0.0724.

Turning to `NC1CCCNC1=O` (stereo not shown) [3-Aminopiperidin-2-one], the “log2(corrected fold change)” value stood at 0.003124. With `O=C(O)CC(O)CC(=O)O` [3-hydroxypentanedioic acid], the “log2(corrected fold change)” value is reported as -0.0058.

With `O=C(O)CC(C(=O)O)C(O)C(=O)O` (racemic) [DL-Isocitric acid], the “log2(corrected fold change)” value is recorded as -0.01609. Still for that read-out and setting: with `Nc1ncnc2c1ncn2[C@@H]1O[C@H](CO)[C@@H](O)[C@H]1O` [Adenosine] the figure was 0.2973; with `CCCCCCCC(=O)O` [Octanoic acid], -0.007345. `Nc1ncnc2c1ncn2[C@@H]1O[C@H](COP(=O)(O)OS(=O)(=O)O)[C@@H](OP(=O)(O)O)[C@H]1O` [3-Phosphoadenosine 5-phosphosulfate]: the “log2(corrected fold change)” value was -0.003179. On the same count and under the same terms, with `C[S+](CC[C@H](N)C(=O)O)C[C@H]1O[C@@H](n2cnc3c(N)ncnc32)[C@H](O)[C@@H]1O` (stereo partly drawn) [S-(5-Adenosyl)-L-methionine] the figure was 0.006892; with `CC(=O)NCC(=O)O` [Acetylamino-acetic acid], 0.03921. On the same count and under the same terms, with `CN1c2c(nc(N)[nH]c2=O)NCC1CNc1ccc(C(=O)N[C@@H](CCC(=O)O)C(=O)O)cc1` (stereo partly shown) [5-Methyltetrahydrofolic acid] the figure was 0.02128; with `N[C@@H](Cc1ccccc1)C(=O)O` [L-Phenylalanine], -0.04409.

As for `OC[C@H]1OC(O)[C@@H](O)[C@@H](O)[C@@H]1O` (stereo partly drawn) [D-Mannose], the “log2(corrected fold change)” value is -0.01874.

Turning to `Cc1cn([C@@H]2O[C@H](CO)[C@@H](O)[C@H]2O)c(=O)[nH]c1=O` [5-Methyluridine], the “log2(corrected fold change)” value came to 0.07915. Same read-out and setting: as for `CC(=O)N[C@@H](CCC(=O)O)C(=O)O` [N-Acetyl-L-glutamic acid], the figure is 0.006675; as for `O=C1O[C@H]2[C@H](OC(O)[C@@H]2O)[C@@H]1O` (stereo partly drawn) [D-Glucurono-6,3-lactone], 0.01187. The same measure, in the same setting: with `CC[C@@H](C)[C@H](N)C(=O)O` [L-Alloisoleucine] the figure was -0.00688; with `O=C1O[C@H]([C@@H](O)CO)[C@H](O)[C@@H]1O` [L-Gulonic acid gamma-lactone], 0.02733.

Staying with this assay, now noted: MIDAS screen, sheet eIF2Ba; metabolites screened in pools 1-4; p-value and q-value given.
Turning to `C[N+](C)(C)CCOP(=O)(O)O` [Phosphocholine], the “log2(corrected fold change)” value is listed as -0.0156. As to `Nc1nc2c(c(=O)[nH]1)N=C(CNc1ccc(C(=O)N[C@@H](CCC(=O)O)C(=O)O)cc1)CN2` [Dihydrofolic acid], the “log2(corrected fold change)” value was -0.03543. Consider `O=c1ccn([C@@H]2O[C@H](COP(=O)(O)OP(=O)(O)O)[C@@H](O)[C@H]2O)c(=O)[nH]1` [Uridine 5-diphosphate], for which the “log2(corrected fold change)” value is listed as -0.03147.

As for `CC(=O)CC(=O)SCCNC(=O)CCNC(=O)[C@H](O)C(C)(C)COP(=O)(O)OP(=O)(O)OC[C@H]1O[C@@H](n2cnc3c(N)ncnc32)[C@H](O)[C@@H]1OP(=O)(O)O` [Acetoacetyl coenzyme A], the “log2(corrected fold change)” value came to 0.4297. For the compound `N[C@@H](Cc1c[nH]c2ccc(O)cc12)C(=O)O` [5-Hydroxy-L-tryptophan], the “log2(corrected fold change)” value is -0.8537. On to `CCC(=O)C(=O)O` [2-Ketobutyric acid], for which the “log2(corrected fold change)” value is reported as -0.05529. The same measure, in the same setting: as for `O=P(O)(O)OC[C@H](O)CO` [D-Glycerol 1-phosphate], the figure is 0.1183; as for `NCCc1c[nH]cn1` [Histamine], 0.1325; as for `O=C(O)c1cccnc1C(=O)O` [2,3-Pyridinedicarboxylic acid], 0.05596.

Take `N[C@H](CCSSCC[C@@H](N)C(=O)O)C(=O)O` (racemic) [DL-Homocystine]: the “log2(corrected fold change)” value is given as 0.09463. The same measure, in the same setting: with `Cc1cn([C@H]2C[C@H](O)[C@@H](COP(=O)(O)OP(=O)(O)OP(=O)(O)O)O2)c(=O)[nH]c1=O` [Thymidine 5-triphosphate] the figure was 0.01939; with `O=C(CO)[C@@H](O)[C@H](O)[C@H](O)CO` [D-Fructose], -0.09045. As for `C[N+](C)(C)CC=O` [Betaine aldehyde], the “log2(corrected fold change)” value is listed as -0.1426. Same read-out and setting: as for `O=P(O)(O)OC[C@H]1O[C@@H](O)C[C@@H]1O` [2-Deoxyribose-5-phosphate], the figure is 1.609. As for `O=C(O)Cc1cc(O)ccc1O` [Homogentisic acid], the “log2(corrected fold change)” value is -0.08584. For `Nc1nc2c(ncn2[C@@H]2O[C@H](COP(=O)(O)O)[C@@H](O)[C@H]2O)c(=O)[nH]1` [Guanosine 5-monophosphate], the “log2(corrected fold change)” value is listed as 1.415. Turning to `NC(N)=O` [Urea], the “log2(corrected fold change)” value was -0.06736. Same read-out and setting: as for `Cc1c[nH]c(=O)[nH]c1=O` [Thymine], the figure is -0.1153.

For the compound `NC(CCCC(=O)O)C(=O)O` (stereo not shown) [2-Aminoadipic acid], the “log2(corrected fold change)” value was -0.07731. On to `CC(=O)OCC[N+](C)(C)C` [Acetylcholine], for which the “log2(corrected fold change)” value is recorded as -0.07879.

For the compound `O=C(O)[C@@H]1CCC(O)=N1` [L-Pyroglutamic acid], the “log2(corrected fold change)” value was -0.09309.

As to `O=c1ccn([C@H]2C[C@H](O)[C@@H](COP(=O)(O)O)O2)c(=O)[nH]1` [2-Deoxyuridine 5-monophosphate], the “log2(corrected fold change)” value came to 0.2736. The same measure, in the same setting: as for `O=c1[nH]cnc2c1ncn2[C@@H]1O[C@H](CO)[C@@H](O)[C@H]1O` [Inosine], the figure is 0.3045; as for `N[C@@H](Cc1ccc(O)c(O)c1)C(=O)O` [3,4-Dihydroxy-L-phenylalanine], 0.5098. The same measure, in the same setting: with PIP3 the figure was 0.2943.

In the case of `N=C(N)NCCCC(=O)O` [4-Guanidinobutyric acid], the “log2(corrected fold change)” value is listed as 0.2552. Still for that read-out and setting: as for `O=C(O)Cc1ccc(O)cc1` [4-Hydroxyphenylacetic acid], the figure is -0.07366. Regarding `OC[C@H]1O[C@@](CO)(O[C@H]2O[C@H](CO)[C@@H](O)[C@H](O)[C@H]2O)[C@@H](O)[C@@H]1O` [Sucrose], the “log2(corrected fold change)” value is listed as -0.3372. With `O=C(O)[C@H]1CCCN1` [D-Proline], the “log2(corrected fold change)” value is given as -0.05584.

Turning to `O=P(O)(O)O[C@H]1O[C@H](CO)[C@@H](O)[C@H]1O` [D-Ribose 1-phosphate], the “log2(corrected fold change)” value was 0.3189. Same read-out and setting: with `OC[C@@H](O)[C@H](O)[C@@H](O)CO` [Xylitol] the figure was -0.08707. Take `O=C(O)[C@@H]1CCCCN1` [L-Pipecolic acid]: the “log2(corrected fold change)” value was -0.07553. Still for that read-out and setting: with `CN(CC(=O)O)C(=N)N` [Creatine] the figure was 0.06671.

As for `NC(N)=NCC(=O)O` [Guanidineacetic acid], the “log2(corrected fold change)” value was found to be 0.1469. Same read-out and setting: with `CCCCC[C@H](O)/C=C/[C@H]1[C@H](O)CC(=O)[C@@H]1C/C=C\CCCC(=O)O` [Prostaglandin E2] the figure was 0.05625.

Regarding `CC(=O)CC(=O)O` [Acetoacetate], the “log2(corrected fold change)” value is -0.05529. Same read-out and setting: with `CC(=O)N[C@H]1[C@H](O[C@H]2[C@H](O)[C@@H](NC(C)=O)C(O)O[C@@H]2CO)O[C@H](CO)[C@@H](O)[C@@H]1O` (stereo partly shown) [N,N-Diacetylchitobiose] the figure was 0.08913; with `O=c1[nH]cnc2c1ncn2[C@H]1C[C@H](O)[C@@H](CO)O1` [2-Deoxyinosine], 0.06917; with `CCC(C)C(=O)C(=O)O` (stereo not shown) [3-Methyl-2-oxovaleric acid], -0.05419.
